Measured values taken from patent US20250255874A1, “Methods for Treating Immune Thrombocytopenia By Administering (R)-2-[3-[4-Amino-3-(2-Fluoro-4-Phenoxy-Phenyl)Pyrazolo[3,4-D]Pyrimidin-1-YL]Piperidine-1-Carbonyl]-4-Methyl-4-[4-(Oxetan-3-YL)Piperazin-1-YL]Pent-2-Enentrile” (Principia Biopharma Inc., priority 2022, published 2025).

Test system: patients with relapsed/refractory immune thrombocytopenia
Assay: Phase 1/2 study (NCT03395210) Part A, safety;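 further: adverse events graded by NCI CTCAE version 4.0, with worsening of pre-existing conditions counted as adverse events, analysed in the Safety Population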
[1] = patients who initiated at all doses

CC(C)(C=C(C#N)C(=O)N1CCC[C@@H](n2nc(-c3ccc(Oc4ccccc4)cc3F)c3c(N)ncnc32)C1)N1CCN(C2COC2)CC1 [rilzabrutinib, (R)-2-[3-[4-amino-3-(2-fluoro-4-phenoxy-phenyl)pyrazolo[3,4-d]pyrimidin-1-yl]piperidine-1-carbonyl]-4-methyl-4-[4-(oxetan-3-yl)piperazin-1-yl]pent-2-enenitrile]
Fatigue, TEAEs Due to Any Cause, Grade 2 (Safety Population, N = 60): 2 (3) number of patients (percent)
Fatigue, Treatment-Related TEAEs, Any grade (Safety Population, N = 60): 6 (10) number of patients (percent)
Fatigue, Treatment-Related TEAEs, Grade 1 (Safety Population, N = 60): 5 (8) number of patients (percent)
Fatigue, Treatment-Related TEAEs, Grade 2 (Safety Population, N = 60): 1 (2) number of patients (percent)
Frequent bowel movements, TEAEs Due to Any Cause, Any grade (Safety Population, N = 60): 1 (2) number of patients (percent)
Frequent bowel movements, TEAEs Due to Any Cause, Grade 2 (Safety Population, N = 60): 1 (2) number of patients (percent)
Frequent bowel movements, Treatment-Related TEAEs, Any grade (Safety Population, N = 60): 1 (2) number of patients (percent)
Frequent bowel movements, Treatment-Related TEAEs, Grade 2 (Safety Population, N = 60): 1 (2) number of patients (percent)
Gingival bleeding, TEAEs Due to Any Cause, Any grade (Safety Population, N = 60): 3 (5) number of patients (percent)
Gingival bleeding, TEAEs Due to Any Cause, Grade 1 (Safety Population, N = 60): 3 (5) number of patients (percent)
Headache, TEAEs Due to Any Cause, Any grade (Safety Population, N = 60): 7 (12) number of patients (percent)
Headache, TEAEs Due to Any Cause, Grade 1 (Safety Population, N = 60): 7 (12) number of patients (percent)
Headache, Treatment-Related TEAEs, Any grade (Safety Population, N = 60): 2 (3) number of patients (percent)
Headache, Treatment-Related TEAEs, Grade 1 (Safety Population, N = 60): 2 (3) number of patients (percent)
Heavy menstrual bleeding, TEAEs Due to Any Cause, Any grade (Safety Population, N = 60): 2 (3) number of patients (percent)
Heavy menstrual bleeding, TEAEs Due to Any Cause, Grade 1 (Safety Population, N = 60): 1 (2) number of patients (percent)
Heavy menstrual bleeding, TEAEs Due to Any Cause, Grade 2 (Safety Population, N = 60): 1 (2) number of patients (percent)
Hot flush, TEAEs Due to Any Cause, Any grade (Safety Population, N = 60): 1 (2) number of patients (percent)
Hot flush, TEAEs Due to Any Cause, Grade 2 (Safety Population, N = 60): 1 (2) number of patients (percent)
Hot flush, Treatment-Related TEAEs, Any grade (Safety Population, N = 60): 1 (2) number of patients (percent)
Hot flush, Treatment-Related TEAEs, Grade 2 (Safety Population, N = 60): 1 (2) number of patients (percent)
Hypoesthesia, TEAEs Due to Any Cause, Any grade (Safety Population, N = 60): 1 (2) number of patients (percent)
Hypoesthesia, TEAEs Due to Any Cause, Grade 2 (Safety Population, N = 60): 1 (2) number of patients (percent)
Hypoesthesia, Treatment-Related TEAEs, Any grade (Safety Population, N = 60): 1 (2) number of patients (percent)
Hypoesthesia, Treatment-Related TEAEs, Grade 2 (Safety Population, N = 60): 1 (2) number of patients (percent)
Hypokalemia, TEAEs Due to Any Cause, Any grade (Safety Population, N = 60): 1 (2) number of patients (percent)
Hypokalemia, TEAEs Due to Any Cause, Grade 1 (Safety Population, N = 60): 1 (2) number of patients (percent)
Hypokalemia, Treatment-Related TEAEs, Any grade (Safety Population, N = 60): 1 (2) number of patients (percent)
Hypokalemia, Treatment-Related TEAEs, Grade 1 (Safety Population, N = 60): 1 (2) number of patients (percent)
Hypophosphatemia, TEAEs Due to Any Cause, Any grade (Safety Population, N = 60): 2 (3) number of patients (percent)
Hypophosphatemia, TEAEs Due to Any Cause, Grade 2 (Safety Population, N = 60): 2 (3) number of patients (percent)
Increased white blood cell count, TEAEs Due to Any Cause, Any grade (Safety Population, N = 60): 1 (2) number of patients (percent)
Increased white blood cell count, TEAEs Due to Any Cause, Grade 2 (Safety Population, N = 60): 1 (2) number of patients (percent)
Increased white blood cell count, Treatment-Related TEAEs, Any grade (Safety Population, N = 60): 1 (2) number of patients (percent)
Increased white blood cell count, Treatment-Related TEAEs, Grade 2 (Safety Population, N = 60): 1 (2) number of patients (percent)
Maculo-papular rash, TEAEs Due to Any Cause, Any grade (Safety Population, N = 60): 1 (2) number of patients (percent)
Maculo-papular rash, TEAEs Due to Any Cause, Grade 1 (Safety Population, N = 60): 1 (2) number of patients (percent)
Maculo-papular rash, Treatment-Related TEAEs, Any grade (Safety Population, N = 60): 1 (2) number of patients (percent)
Maculo-papular rash, Treatment-Related TEAEs, Grade 1 (Safety Population, N = 60): 1 (2) number of patients (percent)
Malaise, TEAEs Due to Any Cause, Any grade (Safety Population, N = 60): 1 (2) number of patients (percent)
Malaise, TEAEs Due to Any Cause, Grade 1 (Safety Population, N = 60): 1 (2) number of patients (percent)
Malaise, Treatment-Related TEAEs, Any grade (Safety Population, N = 60): 1 (2) number of patients (percent)
Malaise, Treatment-Related TEAEs, Grade 1 (Safety Population, N = 60): 1 (2) number of patients (percent)
Micturition urgency, TEAEs Due to Any Cause, Any grade (Safety Population, N = 60): 1 (2) number of patients (percent)
Micturition urgency, TEAEs Due to Any Cause, Grade 1 (Safety Population, N = 60): 1 (2) number of patients (percent)
Micturition urgency, Treatment-Related TEAEs, Any grade (Safety Population, N = 60): 1 (2) number of patients (percent)
Micturition urgency, Treatment-Related TEAEs, Grade 1 (Safety Population, N = 60): 1 (2) number of patients (percent)
Muscle spasms, TEAEs Due to Any Cause, Any grade (Safety Population, N = 60): 2 (3) number of patients (percent)
Muscle spasms, TEAEs Due to Any Cause, Grade 1 (Safety Population, N = 60): 2 (3) number of patients (percent)
Muscle spasms, Treatment-Related TEAEs, Any grade (Safety Population, N = 60): 1 (2) number of patients (percent)
Muscle spasms, Treatment-Related TEAEs, Grade 1 (Safety Population, N = 60): 1 (2) number of patients (percent)
Myalgia, TEAEs Due to Any Cause, Any grade (Safety Population, N = 60): 1 (2) number of patients (percent)
Myalgia, TEAEs Due to Any Cause, Grade 1 (Safety Population, N = 60): 1 (2) number of patients (percent)
Myalgia, Treatment-Related TEAEs, Any grade (Safety Population, N = 60): 1 (2) number of patients (percent)
Myalgia, Treatment-Related TEAEs, Grade 1 (Safety Population, N = 60): 1 (2) number of patients (percent)
Nasal congestion, TEAEs Due to Any Cause, Any grade (Safety Population, N = 60): 2 (3) number of patients (percent)
Nasal congestion, TEAEs Due to Any Cause, Grade 1 (Safety Population, N = 60): 1 (2) number of patients (percent)
Nasal congestion, TEAEs Due to Any Cause, Grade 2 (Safety Population, N = 60): 1 (2) number of patients (percent)
Nasopharyngitis, TEAEs Due to Any Cause, Any grade (Safety Population, N = 60): 3 (5) number of patients (percent)
Nasopharyngitis, TEAEs Due to Any Cause, Grade 1 (Safety Population, N = 60): 2 (3) number of patients (percent)
Nasopharyngitis, TEAEs Due to Any Cause, Grade 2 (Safety Population, N = 60): 1 (2) number of patients (percent)
Nausea, TEAEs Due to Any Cause, Any grade (Safety Population, N = 60): 21 (35) number of patients (percent)
Nausea, TEAEs Due to Any Cause, Grade 1 (Safety Population, N = 60): 18 (30) number of patients (percent)
Nausea, TEAEs Due to Any Cause, Grade 2 (Safety Population, N = 60): 3 (5) number of patients (percent)
Nausea, Treatment-Related TEAEs, Any grade (Safety Population, N = 60): 18 (30) number of patients (percent)
Nausea, Treatment-Related TEAEs, Grade 1 (Safety Population, N = 60): 16 (27) number of patients (percent)
Nausea, Treatment-Related TEAEs, Grade 2 (Safety Population, N = 60): 2 (3) number of patients (percent)
Peripheral swelling, TEAEs Due to Any Cause, Any grade (Safety Population, N = 60): 3 (5) number of patients (percent)
Peripheral swelling, TEAEs Due to Any Cause, Grade 1 (Safety Population, N = 60): 3 (5) number of patients (percent)
Petechiae, TEAEs Due to Any Cause, Any grade (Safety Population, N = 60): 4 (7) number of patients (percent)
Petechiae, TEAEs Due to Any Cause, Grade 1 (Safety Population, N = 60): 4 (7) number of patients (percent)
Pruritus, TEAEs Due to Any Cause, Any grade (Safety Population, N = 60): 2 (3) number of patients (percent)
Pruritus, TEAEs Due to Any Cause, Grade 1 (Safety Population, N = 60): 1 (2) number of patients (percent)
Pruritus, TEAEs Due to Any Cause, Grade 2 (Safety Population, N = 60): 1 (2) number of patients (percent)
Pruritus, Treatment-Related TEAEs, Any grade (Safety Population, N = 60): 2 (3) number of patients (percent)
Pruritus, Treatment-Related TEAEs, Grade 1 (Safety Population, N = 60): 1 (2) number of patients (percent)
Pruritus, Treatment-Related TEAEs, Grade 2 (Safety Population, N = 60): 1 (2) number of patients (percent)
Purpura, TEAEs Due to Any Cause, Any grade (Safety Population, N = 60): 2 (3) number of patients (percent)
Purpura, TEAEs Due to Any Cause, Grade 1 (Safety Population, N = 60): 2 (3) number of patients (percent)
Rash, TEAEs Due to Any Cause, Any grade (Safety Population, N = 60): 3 (5) number of patients (percent)
Rash, TEAEs Due to Any Cause, Grade 1 (Safety Population, N = 60): 1 (2) number of patients (percent)
Rash, TEAEs Due to Any Cause, Grade 2 (Safety Population, N = 60): 2 (3) number of patients (percent)
Rash, Treatment-Related TEAEs, Any grade (Safety Population, N = 60): 1 (2) number of patients (percent)
Rash, Treatment-Related TEAEs, Grade 1 (Safety Population, N = 60): 1 (2) number of patients (percent)
Thrombocytopenia, TEAEs Due to Any Cause, Any grade (Safety Population, N = 60): 2 (3) number of patients (percent)
Thrombocytopenia, TEAEs Due to Any Cause, Grade 3/4 (Safety Population, N = 60): 2 (3) number of patients (percent)
Upper abdominal pain, TEAEs Due to Any Cause, Any grade (Safety Population, N = 60): 3 (5) number of patients (percent)
Upper abdominal pain, TEAEs Due to Any Cause, Grade 1 (Safety Population, N = 60): 2 (3) number of patients (percent)
Upper abdominal pain, TEAEs Due to Any Cause, Grade 2 (Safety Population, N = 60): 1 (2) number of patients (percent)
Upper abdominal pain, Treatment-Related TEAEs, Any grade (Safety Population, N = 60): 2 (3) number of patients (percent)
Upper abdominal pain, Treatment-Related TEAEs, Grade 1 (Safety Population, N = 60): 1 (2) number of patients (percent)
Upper abdominal pain, Treatment-Related TEAEs, Grade 2 (Safety Population, N = 60): 1 (2) number of patients (percent)
Upper respiratory tract infection, TEAEs Due to Any Cause, Any grade (Safety Population, N = 60): 3 (5) number of patients (percent)
Upper respiratory tract infection, TEAEs Due to Any Cause, Grade 1 (Safety Population, N = 60): 2 (3) number of patients (percent)
Upper respiratory tract infection, TEAEs Due to Any Cause, Grade 2 (Safety Population, N = 60): 1 (2) number of patients (percent)
Urinary tract infection, TEAEs Due to Any Cause, Any grade (Safety Population, N = 60): 2 (3) number of patients (percent)
Urinary tract infection, TEAEs Due to Any Cause, Grade 1 (Safety Population, N = 60): 1 (2) number of patients (percent)
Urinary tract infection, TEAEs Due to Any Cause, Grade 2 (Safety Population, N = 60): 1 (2) number of patients (percent)
Vomiting, TEAEs Due to Any Cause, Any grade (Safety Population, N = 60): 4 (7) number of patients (percent)
Vomiting, TEAEs Due to Any Cause, Grade 1 (Safety Population, N = 60): 3 (5) number of patients (percent)
Vomiting, TEAEs Due to Any Cause, Grade 2 (Safety Population, N = 60): 1 (2) number of patients (percent)
Vomiting, Treatment-Related TEAEs, Any grade (Safety Population, N = 60): 3 (5) number of patients (percent)
Vomiting, Treatment-Related TEAEs, Grade 1 (Safety Population, N = 60): 2 (3) number of patients (percent)
Vomiting, Treatment-Related TEAEs, Grade 2 (Safety Population, N = 60): 1 (2) number of patients (percent)
TEAE resulting in study drug discontinuation: administrative and site conditions (in vivo): 1 (2%) patients (%)
TEAE resulting in study drug discontinuation: gastrointestinal (GI) disorders (in vivo): 4 (7%) patients (%)
TEAE resulting in study drug discontinuation: lymphatic system disorders (in vivo): 2 (4%) patients (%)
treatment-related any-grade TEAE: diarrhea [1]: 32%
treatment-related any-grade TEAE: fatigue [1]: 10%
treatment-related any-grade TEAE: nausea [1]: 30%
patient death (unrelated to treatment, 400 mg bid discontinued on day 8, pre-existing Evans syndrome): 1 patient
